Data as given in publication PMC2821678 (Chemico-biological interactions, 2009).
Like-named read-outs stand apart in the source and are kept apart here. Values belong to the molecule of their own block, whether it stands above or below them.

How the values were obtained:
[1] = test system: B16-F0 melanoma cells; assay: MTT cell viability, B16-F0; assay type: cell-based, murine; conditions: for IC50: read-out: IC50 (48 h) B16-F0
[2] = test system: SK-MEL-28 melanoma cells; assay: MTT cell viability, SK-MEL-28; assay type: cell-based, human
[3] = test system: Mushroom tyrosinase; assay: Tyrosinase mediated GSH depletion assay; assay type: biochemical; conditions: 2 h incubation
[4] = test system: melanocytic SK-MEL-28 melanoma cells; assay: Intracellular GSH measurement, SK-MEL-28; assay type: cell-based, human
[5] = test system: amelanotic C32 melanoma cells; assay: Reactive oxygen species; assay type: cell-based, human
[6] = test system: melanocytic SK-MEL-28 melanoma cells; assay: Reactive oxygen species; assay type: cell-based, human
[7] = test system: Mushroom tyrosinase; assay type: biochemical; conditions: pH 7.4; for Tyrosinase Kinetics AA (rate of AA oxidation): nM of AA per compound (μM) per tyrosinase (U/ml) per min; for Tyrosinase Kinetics NADH (rate of NADH oxidation): nM of NADH per compound (μM) per tyrosinase (U/ml) per min
[8] = test system: amelanotic C32 melanoma cells; assay: Intracellular GSH measurement, C32; assay type: cell-based, human
[9] = test system: amelanotic SK-MEL-24 cells; assay: MTT cell viability, SK-MEL-24; assay type: cell-based; conditions: 75 μM
[10] = MTT cell viability, BJ; assay type: cell-based; conditions: human, BJ skin fibroblast cells
[11] = test system: SK-MEL-5 cells; assay: MTT cell viability, SK-MEL-5; assay type: cell-based, human; conditions: 75 μM
[12] = MTT cell viability, Saos-2; assay type: cell-based; conditions: human, Saos-2 osteosarcoma cells
[13] = MTT cell viability, SW-620; assay type: cell-based; conditions: human, SW-620 colorectal adenocarcinoma cells
[14] = MTT cell viability, PC-3; assay type: cell-based; conditions: human, PC-3 prostate cells
[15] = test system: B16-F10 melanoma cells; assay: MTT cell viability, B16-F10; assay type: cell-based, murine; conditions: 75 μM
[16] = test system: tyrosinase shRNA transfected SK-MEL-28 cells; assay: Drug sensitivity assay using tyrosinase shRNA transfected cells; assay type: cell-based, human; conditions: 75 μM, 48 h, shRNA3 curtailed tyrosinase expression by 50%
[17] = test system: MeWo cells; assay: MTT cell viability, MeWo; assay type: cell-based, human; conditions: 75 μM
[18] = test system: amelanotic C32 cells; assay: MTT cell viability, C32; assay type: cell-based, human; conditions: 75 μM
[19] = test system: SK-MEL-28 melanoma cells; assay: Cell cycle analyses by flow cytometry; assay type: cell-based, human; conditions: 48 h
[20] = Homo sapiens, SK-MEL-28, 48 h, read-out: IC50 (48 h) SK-MEL-28
[21] = 0.75 mM (750 μM), listed as C00002

SMILES: O=C(O)c1ccccc1 [Benzoic acid, benzoic acid, reference compound]
IC50 ([1]; Mus musculus, B16F0, 48 h): 11000 µM | % GSH depletion (2 h) Tyrosinase/O2 [3]: 12±2% | IC50 [2, 20]: > 10000 µM

SMILES: CC(=O)c1cccc(O)c1 [3-hydroxyacetophenone]
IC50 ([1]; 48 h, MTT): 1400 µM | IC50 ([2]; read-out: IC50 (48 h) SK-MEL-28, 48 h, MTT): 2000 µM

SMILES: CCOC(=O)c1ccccc1 [Ethyl benzoate, ethyl benzoate, reference compound]
IC50 ([1]; Mus musculus, B16F0, 48 h): > 10000 µM | % GSH depletion (2 h) Tyrosinase/O2 [3]: 26±3% | IC50 [2, 20]: 7000 µM

SMILES: O=C(O)c1ccccc1O [2-hydroxybenzoic acid]
IC50 ([1]; Mus musculus, B16F0, 48 h): 5200 µM | % GSH depletion (2 h) Tyrosinase/O2 [3]: 0% | IC50 [2, 20]: 5000 µM

SMILES: COc1ccccc1O [2-hydroxyanisole]
IC50 ([1]; Mus musculus, B16F0, 48 h): 51 µM | % GSH depletion (2 h) Tyrosinase/O2 [3]: 25±2% | IC50 [2, 20]: 2200 µM

SMILES: CCOC(=O)c1ccc(OC)cc1 [E4MB, ethyl 4-methoxybenzoate]
Intracellular GSH (ICG) depletion (2 h) ([4]; 0.75 mM (750 μM)): 10% | Intracellular GSH (ICG) depletion (2 h) [4, 21]: 10% | Intracellular GSH depletion (2 h) ([4]; 1 mM): 13% | Intracellular GSH depletion (2 h) ([4]; 1.5 mM): 15% | Fold ROS formation (40 min) at IC50 ([5]; 750 μM, C32): 4 Fold | ROS formation ([5]; 750 μM-5 mM, C32): negligible | Fold ROS formation (40 min) at IC50 ([6]; 750 μM, SK-MEL-28): 9 Fold | ROS formation ([6]; 750 μM-5 mM, SK-MEL-28, in comparison to 4-HEB): significantly lower | Tyrosinase Kinetics AA (rate of AA oxidation) [7]: 8 nM | Tyrosinase Kinetics AA (rate of AA oxidation) ([7]; listed as C00002): 8 nM ^** | Tyrosinase Kinetics NADH (rate of NADH oxidation) [7]: 50 nM | Tyrosinase Kinetics NADH (rate of NADH oxidation) ([7]; listed as C00002): 50 nM ^** | Intracellular GSH (ICG) depletion (2 h) ([8]; 0.75 mM (750 μM)): 6% | Intracellular GSH (ICG) depletion (2 h) [8, 21]: 6% | Intracellular GSH depletion (2 h) ([8]; 1 mM): 7% | Intracellular GSH depletion (2 h) ([8]; 1.5 mM): 10% | % GSH depletion (2 h) Tyrosinase/O2 ([3]; listed as C00002): 5±3% | IC50 ([2]; Homo sapiens, SK-MEL-28, 48 h, read-out: IC50 (48 h) SK-MEL-28 cells): 750 µM | fold decrease in toxicity when compared to 4-HEB ([2]; from IC50 (48 h), SK-MEL-28): 10 fold

Further lines, with some results ahead:

IC50 ([1]; Mus musculus, B16F0, 48 h): 1900 µM | IC50 [2, 20]: 2100 µM
SMILES: CCOC(=O)c1cccc(O)c1 [Ethyl 3-hydroxybenzoate, ethyl 3-hydroxybenzoate]

IC50 ([1]; Mus musculus, B16F0, 48 h): 2600 µM | % GSH depletion (2 h) Tyrosinase/O2 [3]: 22±2% | IC50 [2, 20]: 2000 µM
SMILES: CCOC(=O)c1ccccc1O [Ethyl 2-hydroxybenzoate, ethyl 2-hydroxybenzoate]

IC50 ([1]; Mus musculus, B16F0, 48 h): > 5000 µM | % GSH depletion (2 h) Tyrosinase/O2 [3]: 21±3% | IC50 [2, 20]: > 12000 µM
SMILES: COc1ccccc1 [Anisole, anisole, reference compound]

IC50 ([1]; Mus musculus, B16F0, 48 h): 8000 µM | % GSH depletion (2 h) Tyrosinase/O2 [3]: 0% | IC50 [2, 20]: > 10000 µM
SMILES: OCc1ccccc1 [Benzyl alcohol, benzyl alcohol, reference compound]

IC50 ([1]; Mus musculus, B16F0, 48 h): 4600 µM | % GSH depletion (2 h) Tyrosinase/O2 [3]: 29±3% | IC50 [2, 20]: 5000 µM
SMILES: OCc1cccc(O)c1 [3-hydroxybenzyl alcohol]

IC50 ([1]; Mus musculus, B16F0, 48 h): 190 µM | Fold ROS formation (40 min) at IC50 ([5]; 75 μM, C32): 6 Fold | Fold ROS formation (40 min) at IC50 ([6]; 75 μM, SK-MEL-28): 24 Fold | Tyrosinase Kinetics AA (rate of AA oxidation) ([7]; listed as C00001): 143 nM ^* | Tyrosinase Kinetics NADH (rate of NADH oxidation) ([7]; listed as C00001): 389 nM ^* | % GSH depletion (2 h) Tyrosinase/O2 [3]: 24±4% | % GSH depletion (2 h) Tyrosinase/O2 ([3]; listed as 4-HEB): 24% | % GSH depletion (2 h) Tyrosinase/O2 ([3]; listed as C00001): 24±4% | IC50 [2, 20]: 75 µM
SMILES: CCOC(=O)c1ccc(O)cc1 [Ethyl 4-hydroxybenzoate, ethyl 4-hydroxybenzoate]
Intracellular GSH (ICG) depletion (2 h) ([4]; 75 μM, listed as C00001): 37% | anti-proliferative effect [9]: 24±3% | viability at 75 µM [10]: 89 ± 7% | anti-proliferative effect [11]: 57±5% | viability at 75 µM [12]: 86 ± 1% | viability at 75 µM [13]: 89 ± 4% | viability at 75 µM [14]: 85 ± 3% | anti-proliferative effect [15]: 60±8% | anti-proliferative effect ([1]; 75 μM, B16-F0): 62±11% | toxicity prevented by transfection with tyrosinase shRNA clone 3 [16]: 24±7% | ROS formation ([5]; 75-1500 μM, C32, compared with SK-MEL-28): significantly less | ROS formation ([6]; 75-1500 μM, various time points, SK-MEL-28): dose and time dependent increase | anti-proliferative effect [17]: 55±8% | Intracellular GSH (ICG) depletion (2 h) ([8]; 75 μM, listed as 4-HEB): 8% | Intracellular GSH (ICG) depletion (2 h) ([8]; 75 μM, listed as C00001): 8% | Intracellular GSH depletion (2 h) ([8]; 150 μM): 13% | anti-proliferative effect [18]: 28±4% | Apoptosis (Sub G0/G1) ([19]; 75 μM): 2.9±0.3 % | G1 ([19]; 75 μM): 74.7±0.8% | G2/M ([19]; 75 μM): 9.9±0.1% | S ([19]; 75 μM): 12.4±0.7% | Apoptosis (Sub G0/G1) ([19]; 150 μM): 3.1±0.2 % | G1 ([19]; 150 μM): 72.1±0.7% | G2/M ([19]; 150 μM): 10.6±0.9% | S ([19]; 150 μM): 13.2±1.2% | Apoptosis (Sub G0/G1) ([19]; 250 μM): 5.0±0.9 % | G1 ([19]; 250 μM): 63.4±1.8 % | G2/M ([19]; 250 μM): 10.7±0.7% | S ([19]; 250 μM): 20.1±2.6 % | Apoptosis (Sub G0/G1) ([19]; 500 μM): 6.2±0.8 % | G1 ([19]; 500 μM): 59.8±1.6 % | G2/M ([19]; 500 μM): 10.9±0.4% | S ([19]; 500 μM): 22.1±0.9 % | anti-proliferative effect ([2]; 75 μM, SK-MEL-28): 52±4%
